In paper PMC12401824, “Studies on the impact of modifications at the Gln-Trp site in RM2-based GRPR ligands” (EJNMMI Research, 2025):
“And” between values parts separate entries of the source, which are not always exact repeats. Equal values may be shown once. “Also recorded” adds a separate entry of the source. Read-outs that look alike come from different tables or passages of the source. Starred links: 1 amine or outer side, 2 acyl side, 3 side chain; linkers in the order of their positions; H or OH if unused. Non-standard residues stand in square brackets, D forms with d. Residues, ends and D or L forms follow the SMILES beside them. *: point of attachment. DOTA = O=C(O)CN1CCN(CC(=O)O)CCN(CC(=O)*)CCN(CC(=O)O)CC1; Sta = CC(C)C[C@H](N)[C@@H](O)CC(=O)O; Bta = N[C@@H](Cc1csc2ccccc12)C(=O)O; X1 = O=C(CN1CCC(N[*:1])CC1)[*:2]; hSer = N[C@@H](CCO)C(=O)O

Assays:
PC-3 tumor xenograft = experiment: Competition study: co-injection of excess Lu-RM2 in PC-3 tumor-bearing mice; type: in vivo; settings: ^177Lu-labeled, 100 pmol; co-injection of 40 nmol Lu-RM2; 1 h p.i.; n = 3
Experimental: µPET/CT imaging. Imaging studies were performed at a MILabs VECTor^4 small-animal SPECT/PET/OI/CT device (MILabs, Utrecht, the Netherlands). Data were reconstructed using the MILabs Rec software (version 10.02) and a pixel-based Similarity-Regulated Ordered Subsets Expectation Maximization (SROSEM) algorithm, followed by data analysis using the PMOD4.0 software (PMOD TECHNOLOGIES LLC, Zurich, Switzerland). […] Static images were recorded at 1 h p.i. with an acquisition time of 45–60 min (3–4 frames, 15 min each) using the HE-GP-RM collimator and a step-wise multi-planar bed movement. Depending on the size of the mouse, either four or eight bed position were required, with an imaging time of ~ 1.8 min or ~ 3.6 min per bed position. For competition studies, 3.62 mg/kg (40 nmol) of Lu-RM2 (10^−3 M in PBS) were co-administered.
Figure S6. […] Data are expressed as mean ± SD (n = 4). […] Data are expressed as mean ± SD (n = 3).

[1] = Metabolic stability in vivo in mice (intact tracer in serum); settings: ^177Lu-labeled, healthy mice
Experimental: Metabolic stability in vivo was determined according to a previously published protocol by injecting approximately 30–40 MBq (1 nmol, 150 µL) of the ^177Lu-labeled compounds into the tail vein of anesthetized CB17-SCID mice (n = 3).

[2] = Biodistribution in PC-3 tumor-bearing CB17-SCID mice; type: in vivo; settings: mouse, intravenous, 100 pmol, ^177Lu-labeled, 100 pmol, n = 4; for tissue uptake at 1 h: 1 h p.i.; for tissue uptake at 24 h: 24 h p.i.
Experimental: To establish tumor xenografts, PC-3 cells (5.0 × 10^6 cells per 200 µL) were suspended in a 1/1 mixture (v/v) of Dulbecco’s modified eagle's medium/Ham’s F-12 with Glutamax-I (v/v = 1/1) and Cultrex® Basement Membrane Matrix Type 3 (Trevigen Inc., Gaithersburg, MD, USA) and inoculated subcutaneously onto the right shoulder of CB17-SCID mice (Charles River Laboratories International Inc., Sulzfeld, Germany). Mice (n = 4) were used for experiments when tumor volume has reached 125–500 mm^3 (2–3 weeks after inoculation).
Biodistribution. […] (n = 4), respectively. Selected organs were removed, weighted and measured in a γ-counter.

[3] = adrenal, read-out: Uptake in Adrenal
[4] = blood, read-out: Uptake in Blood
[5] = heart, read-out: Uptake in Heart
[6] = intestine, read-out: Uptake in Intestine
[7] = kidney, read-out: Uptake in Kidney
[8] = liver, read-out: Uptake in Liver
[9] = muscle, read-out: Uptake in Muscle
[10] = pancreas, read-out: Uptake in Pancreas
[11] = spleen, read-out: Uptake in Spleen
[12] = stomach, read-out: Uptake in Stomach
[13] = tumor, read-out: Uptake in Tumor

Compound: CC(C)C[C@H](NC(=O)C[C@H](O)[C@H](CC(C)C)NC(=O)[C@H](Cc1c[nH]cn1)NC(=O)CNC(=O)[C@@H](NC(=O)[C@H](C)NC(=O)[C@H](Cc1csc2ccccc12)NC(=O)[C@H](CCC(N)=O)NC(=O)[C@@H](Cc1ccccc1)NC(=O)CN1CCC(NC(=O)CN2CCN(CC(=O)O)CCN(CC(=O)O)CCN(CC(=O)O)CC2)CC1)C(C)C)C(N)=O [[^177Lu]Lu-[Bta^8]RM2, metal not drawn] ({DOTA}-[X1][dF]Q[Bta]AVGH[Sta]L-NH2)
- Specificity of tumor accumulation (competition with excess of Lu-RM2) (PC-3 tumor xenograft): specific
- Intact compound in murine serum in vivo, 15 min after injection [1]: < 20% and ~ 10%
- Intact compound in murine serum in vivo, 30 min after injection [1]: did not show any intact; also recorded: could not detect any intact
- tissue uptake at 1 h [2, 3]: 1.1 ± 0.1 %ID/g
- tissue uptake at 24 h [2, 3]: 0.59 ± 0.33 %ID/g
- tissue uptake at 1 h [2, 4]: 1.6 ± 0.1 %ID/g
- tissue uptake at 24 h [2, 4]: 0.04 ± 0.04 %ID/g
- tissue uptake at 1 h ([2]; bone, read-out: Uptake in Bone): 0.9 %ID/g
- tissue uptake at 24 h ([2]; bone, read-out: Uptake in Bone): 2.58 ± 1.05 %ID/g
- tissue uptake at 1 h [2, 5]: 0.7 %ID/g
- tissue uptake at 24 h [2, 5]: 0.09 ± 0.01 %ID/g
- tissue uptake at 1 h [2, 6]: 1 ± 0.3 %ID/g
- tissue uptake at 24 h [2, 6]: 0.28 ± 0.07 %ID/g
- tissue uptake at 1 h [2, 7]: 4.4 ± 0.4 %ID/g
- tissue uptake at 24 h [2, 7]: 2.07 ± 0.23 %ID/g
- tissue uptake at 1 h [2, 8]: 1.1 ± 0.1 %ID/g
- tissue uptake at 24 h [2, 8]: 0.77 ± 0.09 %ID/g
- tissue uptake at 1 h ([2]; lung, read-out: Uptake in Lung): 1.8 ± 0.2 %ID/g
- tissue uptake at 24 h ([2]; lung, read-out: Uptake in Lung): 0.22 ± 0.11 %ID/g
- tissue uptake at 1 h [2, 9]: 0.2 ± 0.1 %ID/g
- tissue uptake at 24 h [2, 9]: 0.02 ± 0.02 %ID/g
- tissue uptake at 1 h [2, 10]: 3.7 ± 1.4 %ID/g
- tissue uptake at 24 h [2, 10]: 0.17 ± 0.02 %ID/g
- tissue uptake at 24 h [2, 11]: 0.32 ± 0.06 %ID/g
- tissue uptake at 1 h [2, 12]: 1.3 ± 0.3 %ID/g
- tissue uptake at 24 h [2, 12]: 0.27 ± 0.08 %ID/g
- tissue uptake at 1 h [2, 13]: 12.1 ± 1.8 %ID/g
- tissue uptake at 24 h [2, 13]: ~2 %ID/g

Compound: CC(C)C[C@H](NC(=O)C[C@H](O)[C@H](CC(C)C)NC(=O)[C@H](Cc1c[nH]cn1)NC(=O)CNC(=O)[C@@H](NC(=O)[C@H](C)NC(=O)[C@H](Cc1c[nH]c2ccccc12)NC(=O)[C@H](CCO)NC(=O)[C@@H](Cc1ccccc1)NC(=O)CN1CCC(NC(=O)CN2CCN(CC(=O)O)CCN(CC(=O)O)CCN(CC(=O)O)CC2)CC1)C(C)C)C(N)=O [[^177Lu]Lu-[Hse^7]RM2, metal not drawn] ({DOTA}-[X1][dF][hSer]WAVGH[Sta]L-NH2)
- Specificity of tumor accumulation (competition with excess of Lu-RM2) (PC-3 tumor xenograft): specific
- Intact compound in murine serum in vivo, 15 min after injection [1]: < 20% and ~ 19%
- Intact compound in murine serum in vivo, 30 min after injection [1]: did not show any intact; also recorded: could not detect any intact
- tissue uptake at 1 h [2, 3]: 1.2 ± 0.5 %ID/g
- tissue uptake at 24 h [2, 3]: 0.61 ± 0.21 %ID/g
- tissue uptake at 1 h [2, 4]: 1 ± 0.2 %ID/g
- tissue uptake at 24 h [2, 4]: 0.02 %ID/g
- tissue uptake at 1 h ([2]; bone, read-out: Uptake in Bone): 0.2 %ID/g
- tissue uptake at 24 h ([2]; bone, read-out: Uptake in Bone): 2.37 ± 1.13 %ID/g
- tissue uptake at 1 h [2, 5]: 0.4 ± 0.1 %ID/g
- tissue uptake at 24 h [2, 5]: 0.11 ± 0.03 %ID/g
- tissue uptake at 1 h [2, 6]: 1.6 ± 0.2 %ID/g
- tissue uptake at 24 h [2, 6]: 0.38 ± 0.11 %ID/g
- tissue uptake at 1 h [2, 7]: 4.8 ± 0.3 %ID/g
- tissue uptake at 24 h [2, 7]: 1.94 ± 0.28 %ID/g
- tissue uptake at 1 h [2, 8]: 0.9 ± 0.1 %ID/g
- tissue uptake at 24 h [2, 8]: 0.96 ± 0.15 %ID/g
- tissue uptake at 1 h ([2]; lung, read-out: Uptake in Lung): 0.9 ± 0.2 %ID/g
- tissue uptake at 24 h ([2]; lung, read-out: Uptake in Lung): 0.17 ± 0.02 %ID/g
- tissue uptake at 1 h [2, 9]: 0.2 %ID/g
- tissue uptake at 24 h [2, 9]: 0.01 %ID/g
- tissue uptake at 1 h [2, 10]: 8 ± 0.5 %ID/g
- tissue uptake at 24 h [2, 10]: 0.14 ± 0.01 %ID/g
- tissue uptake at 1 h [2, 11]: 0.6 ± 0.2 %ID/g
- tissue uptake at 24 h [2, 11]: 0.36 ± 0.03 %ID/g
- tissue uptake at 1 h [2, 12]: 2.2 ± 0.3 %ID/g
- tissue uptake at 24 h [2, 12]: 0.26 ± 0.01 %ID/g
- tissue uptake at 1 h [2, 13]: 16.6 ± 1.6 %ID/g
- tissue uptake at 24 h [2, 13]: ~2 %ID/g
